The values below come from US6262094A (priority 1999, dated 2001).

Common to all, as to format: cell-based
Assay [1] has as its system PC-3 (ATCC CRL 1435), human prostate adenocarcinoma. As to conditions: 120 h, PC-3, incubation period of 5 days, MTT.
For assay [2], the system named is KB-3.1 (DSM ACC 158), human cervix carcinoma. As to conditions: KB 3-1, 120 h, KB-3.1, incubation period of 5 days, MTT.
The test system of assay [3] is SK-OV-3 (ATCC HTB-77), human ovary adenocarcinoma. As to conditions: 120 h, SK-OV-3, incubation period of 5 days, MTT.
Assay [4] concerns U-937 (DSM ACC 5), human histiocytic lymphoma. Kind of assay: Growth inhibition, WST-1 reduction in microtiter plates. As to conditions: 120 h, U-937, incubation period of 5 days, read-out: IC50 K-562/U-937 leukemia. (Tetrazolium dyes change colour on reduction, which living cells bring about.)
Assay [5] deals with K-562 (ATCC CCL-243), human chronic myelogenous leukemia. Described as above. As to conditions: K562, 120 h, K-562, incubation period of 5 days, read-out: IC50 K-562/U-937 leukemia.
The test system of assay [6] is A-549 (DSM ACC 107), human lung carcinoma. As to conditions: A549, 120 h, A-549, incubation period of 5 days, MTT.

≈ marks a conversion by molar mass, not a printed value.

For the molecule `C=Cc1nc(/C=C(\C)[C@@H]2C[C@@H]3O[C@@H]3CCC[C@H](C)[C@H](O)[C@@H](C)C(=O)C(C)(C)[C@@H](O)CC(=O)O2)cs1` [20-vinyl-epo A, [1S-[1R*,3R*(E),7R*,10S*,11R*,12R*,16S*]]-3-[2-(2-Ethenyl-4-thiazolyl)-1-methylethenyl]-7,11-dihydroxy-8,8,10,12-tetramethyl-4,17-dioxabicyclo[14.1. 0]heptadecane-5,9-dione], the IC50 in assay [1] was determined as 0.4 ng/mL (≈ 0.791 nM); in assay [2], 3 ng/mL (≈ 5.93 nM); in assay [3], 1 ng/mL (≈ 1.98 nM); in assay [4] it was 1.5 ng/mL (≈ 2.97 nM).

Consider `C/C(=C\c1csc(CN)n1)[C@@H]1C[C@@H]2O[C@@H]2CCC[C@H](C)[C@H](O)[C@@H](C)C(=O)C(C)(C)[C@@H](O)CC(=O)O1` [21-amino-epo A], for which the IC50 in assay [1] was found to be 3 ng/mL (≈ 5.9 nM); in assay [2] it was 4 ng/mL (≈ 7.86 nM); in assay [3], 4 ng/mL (≈ 7.86 nM); in assay [4], 3 ng/mL (≈ 5.9 nM).

For `C/C(=C\c1csc(CN=[N+]=[N-])n1)[C@@H]1C[C@@H]2O[C@]2(C)CCC[C@H](C)[C@H](O)[C@@H](C)C(=O)C(C)(C)[C@@H](O)CC(=O)O1` [21-azido-epo B, [1S-[1R*,3R* (E),7R*, 10S*,11R*,12R*,16S*]]-3-[2-[2-(Azidomethyl)-4-thiazolyl]-1-methylethenyl]-7,11-dihydroxy-8,8,10,12,16-pentamethyl-4,17-dioxabicyclo[14.1. 0]heptadecane-5,9-dione], the values for the IC50 in assay [1] and in assay [2] were 0.4 ng/mL (≈ 0.729 nM) and 0.5 ng/mL (≈ 0.911 nM), respectively.

With `C/C(=C\c1csc(CN)n1)[C@@H]1C[C@@H]2O[C@]2(C)CCC[C@H](C)[C@H](O)[C@@H](C)C(=O)C(C)(C)[C@@H](O)CC(=O)O1` [21-amino-epo B, [1S-[1R*,3R*(E),7R*,10S*,11R*,12R*,16S*]]-3-[2-[2-(Aminomethyl)-4-thiazolyl]-1-methylethenyl]-7,11-dihydroxy-8,8,10,12,16-pentamethyl-4,17-dioxabicyclo[14.1.0]heptadecane-5,9-dione], the IC50 in assay [1] worked out at 1.5 ng/mL (≈ 2.87 nM); in assay [2], 0.4 ng/mL (≈ 0.765 nM).

Regarding `C/C(=C\c1csc(CCl)n1)[C@@H]1C[C@@H]2O[C@@H]2CCC[C@H](C)[C@H](O)[C@@H](C)C(=O)C(C)(C)[C@@H](O)CC(=O)O1` [21-chloro-epo A], the IC50 in assay [5] amounted to 12 ng/mL (≈ 22.7 nM); in assay [2], 60 ng/mL (≈ 114 nM); in assay [6] it was 10 ng/mL (≈ 18.9 nM).
